Laboratory results from patent US20170265465A1, “BIORATIONAL TREATMENT PRODUCTS AND METHODS OF USING SAME” (Board of Trustees of Michigan State University, priority 2014, published 2017).

Key:
Type in all cases: in vivo
[1] = system: creeping bentgrass (Agrostis palustris) putting green; experiment: Example 11, 2015 spring green-up (dormancy break) study: visual turfgrass biomass rating; details: urea only 0.2 lb. N/1000 ft^2, no bio-adjuvant; scale 1-5
Method: […] Objective biomass ratings were also performed based on an increase in dried weight of clippings. Clippings were collected over pre-measured plot areas in each treatment replicate using a Toro® brand walk-behind greens mower Model Greensmaster 8000 at the height described in this Example and dried in a drying oven (60° C.) for approximately 48 hours before being weighed.
(§1) Treatments were applied in the same manner and using the same equipment as previously described in Example 1. Turfgrass quality ratings and biomass ratings were performed as described in Example 1. Clippings were also collected as described in Example 1.
(§2) Treatments were applied once only to 2 ft ([…])×10.5 ft (3.2 m) plots of turfgrass on Apr. 1, 2015, while the turfgrass was still in winter dormancy (desiccated, brown, and thin). No additional applications were made to the study area. The study was rated visually for turfgrass biomass increase on Apr. 3, 2015 (2 days after treatment), on Apr. 11, 2015, and on Apr. 17, 2015. Turfgrass quality ratings were taken on Apr. 11, 2015 and Apr. 17, 2015. Turfgrass clippings were collected, dried, and weighed on Apr. 19, 2015 and May 2, 2015.

[2] = system: creeping bentgrass (Agrostis palustris) putting green; experiment: Example 11: dried clippings weights; details: urea only 0.2 lb. N/1000 ft^2, no bio-adjuvant
Method: Some biomass ratings were subjective visual estimations based on appearance of a combination of increased biomass and increased density on a 1 (least increase) to 9 (most increase) scale. Objective biomass ratings were also performed based on an increase in dried weight of clippings. Clippings were collected over pre-measured plot areas in each treatment replicate using a Toro® brand walk-behind greens mower Model Greensmaster 8000 at the height described in this Example and dried in a drying oven (60° C.) for approximately 48 hours before being weighed.
as §1, §2

[3] = system: creeping bentgrass (Agrostis palustris) putting green; experiment: Example 11: turfgrass quality rating; details: scale 1-9, urea 0.2 lb. N/1000 ft^2
Method: as §1, §2

`NC(N)=O` [Urea only] was tested, and the “Appearance (Biomass Increase) Apr. 3, 2015 Mean” value [1] was 1.5, the “Appearance (Biomass Increase) Apr. 11, 2015 Mean” value [1] was 2.5 and the “Appearance (Biomass Increase) Apr. 17, 2015 Mean” value [1] was 3. The “Appearance (Biomass Increase) Apr. 25, 2015 Mean” value [1] was 2.25, the “Clippings (Biomass) Dry wt (g) Apr. 19, 2015 Mean” value [2] was 4.623 g and the “Clippings (Biomass) Dry wt (g) May 2, 2015 Mean” value [2] was 6.175 g. For the same compound, the “Turfgrass Quality” value ([3]; Apr. 11, 2015) was 5.5, the “Turfgrass Quality” value ([3]; Apr. 17, 2015) was 5.5 and the “Turfgrass Quality” value ([3]; Apr. 25, 2015) was 5.75.
